Measured values as given in the supplement of paper PMC10331698.
± gives the standard deviation of the averaged measurements.

Legend:
Assay in all cases: level (log10 ratio to DMSO vehicle control); higher = higher biomarker level / cell amount than vehicle control
Conditions in all cases: in DMSO
[1] = compound: COC(=O)CCC(F)(F)C(F)(F)C(F)(F)C(F)(F)F [Methyl 2H,2H,3H,3H-perfluoroheptanoate]
Method: (§1)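 BioMAP Diversity Plus panel of 12 human primary cell co-culture systems (3C, 4H, LPS, SAg, BT, BF4T, BE3C, CASM3C, HDF3CGF, KF3CT, MyoF, Mphg). Compounds were added 1 h before stimulation and left for 24 h (MyoF 48 h; BT 72 h for soluble read-outs or 6 d for IgG). Biomarkers were read by ELISA, cytotoxicity by SRB, PBMC viability and proliferation by Alamar Blue. Each well value was divided by the mean of 8 DMSO control wells on the same plate and log10 transformed; duplicate blinded samples were tested at 4 concentrations.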

[2] = compound: FC(F)C(F)(F)COCC1CO1 [((2,2,3,3-Tetrafluoropropoxy)methyl)oxirane]
Method: as §1

[3] = compound: C=CC(=O)OCC(F)(F)C(F)(F)C(F)(F)C(F)(F)C(F)(F)C(F)(F)C(F)(F)F [1H,1H-Perfluorooctyl acrylate]
Method: as §1

[4] = compound: O=C(O)C(F)(F)C(F)(F)C(F)(F)C(F)(F)C(F)(F)C(F)(F)C(F)(F)C(F)F [9-H-Perfluorononanoic acid]
Method: as §1

[5] = compound: FC(F)(F)C(F)(C(F)(F)F)C(F)(F)C(F)(F)CC1CO1 [3-(Perfluoro-3-methylbutyl)-1,2-propenoxide]
Method: as §1

Perfluoro-1-iodohexane = compound: FC(F)(F)C(F)(F)C(F)(F)C(F)(F)C(F)(F)C(F)(F)I [Perfluoro-1-iodohexane]
Method: as §1

Perfluorodecanoic acid = compound: O=C(O)C(F)(F)C(F)(F)C(F)(F)C(F)(F)C(F)(F)C(F)(F)C(F)(F)C(F)(F)C(F)(F)F [Perfluorodecanoic acid]
Method: as §1

Test System	level (log10) ([1]; 6700 nM)	level (log10) ([1]; 20000 nM)	level (log10) ([1]; 60000 nM)	level (log10) ([2]; 6700 nM)	level (log10) ([2]; 20000 nM)	level (log10) ([2]; 60000 nM)	level (log10) ([3]; 6700 nM)	level (log10) ([3]; 20000 nM)	level (log10) ([3]; 60000 nM)	level (log10) ([4]; 6700 nM)	level (log10) ([4]; 20000 nM)	level (log10) ([4]; 60000 nM)	level (log10) ([5]; 6700 nM)	level (log10) ([5]; 20000 nM)	level (log10) (Perfluoro-1-iodohexane; 6700 nM)	level (log10) (Perfluoro-1-iodohexane; 20000 nM)	level (log10) (Perfluoro-1-iodohexane; 60000 nM)	level (log10) (Perfluorodecanoic acid; 6700 nM)	level (log10) (Perfluorodecanoic acid; 20000 nM)
BF4T:SRB	-0.002 ± 0.0028	0.003 ± 0.0028	-0.003 ± 0.0014	-0.0075 ± 0.0035	-0.006 ± 0.0057	0.002 ± 0.017	-0.003	-0.0055 ± 0.011	0.002 ± 0.025	-0.018 ± 0.0085	-0.018 ± 0.0071	-0.016 ± 0.0014	0.0015 ± 0.0035	-0.0035 ± 0.00071	-0.006 ± 0.0085	-0.011 ± 0.011	-0.0135 ± 0.016	-0.001 ± 0.0071	-0.256 ± 0.0014
BF4T:tPA	-0.019 ± 0.0085	-0.023 ± 0.0014	-0.0145 ± 0.013	-0.009 ± 0.018	-0.001 ± 0.033	0.016 ± 0.064	-0.0045 ± 0.013	0.0025 ± 0.0021	-0.0075 ± 0.025	-0.094 ± 0.014	-0.128 ± 0.012	-0.122 ± 0.019	0.0135 ± 0.00071	0.0135 ± 0.0021	0.0015 ± 0.005	-0.0065 ± 0.018	0.036 ± 0.047	-0.0185 ± 0.005	-0.18 ± 0.097
BF4T:uPA	-0.0055 ± 0.026	0.0015 ± 0.012	-0.0145 ± 0.005	-0.003 ± 0.0028	-0.0005 ± 0.013	0.0135 ± 0.036	-0.002 ± 0.0014	0.0035 ± 0.00071	0.001 ± 0.0042	-0.0085 ± 0.016	-0.0195 ± 0.012	0.001 ± 0.013	-0.0115 ± 0.0078	-0.0325 ± 0.0078	-0.0075 ± 0.013	-0.016 ± 0.024	-0.0165 ± 0.0035	0.015 ± 0.011	-0.235 ± 0.043
BT:B cell Proliferation	-0.022 ± 0.023	-0.019 ± 0.047	-0.001 ± 0.05	-0.021 ± 0.02	-0.014 ± 0.0042	0.0105 ± 0.0092	-0.0405 ± 0.05	-0.0195 ± 0.056	-0.052 ± 0.048	0.0245 ± 0.0021	0.0495 ± 0.00071	0.108 ± 0.0028	-0.002 ± 0.025	0.017 ± 0.0099	-0.011 ± 0.054	-0.008 ± 0.011	-0.0135 ± 0.025	0.0135 ± 0.04	0.0395 ± 0.03
BT:PBMC Cytotoxicity	0.032 ± 0.014	0.0045 ± 0.0092	0.0045 ± 0.021	0.0145 ± 0.0021	-0.011 ± 0.0085	-0.0135 ± 0.005	-0.032 ± 0.071	-0.0405 ± 0.056	-0.092 ± 0.068	-0.009 ± 0.055	0.0435 ± 0.025	0.103	-0.0055 ± 0.023	0.005 ± 0.013	0.042 ± 0.014	-0.0045 ± 0.022	0.0285 ± 0.0035	0.0195 ± 0.023	0.045 ± 0.045
BT:Secreted IgG	0.015 ± 0.017	-0.002 ± 0.0071	-0.025 ± 0.018	0.0295 ± 0.047	-0.003 ± 0.071	-0.0065 ± 0.098	-0.0085 ± 0.015	-0.0455 ± 0.057	-0.132 ± 0.016	0.038 ± 0.0071	-0.011 ± 0.031	0.0485 ± 0.019	-0.007 ± 0.064	0.016 ± 0.09	0.0195 ± 0.023	-0.0165 ± 0.043	-0.0315 ± 0.081	-0.014 ± 0.033	-0.018 ± 0.02
BT:sIL-2	0.017 ± 0.018	-0.042 ± 0.037	0.027 ± 0.12	0.084 ± 0.067	-0.005 ± 0.067	0.017 ± 0.13	-0.0455 ± 0.11	0.031 ± 0.028	-0.0025 ± 0.042	-0.0245 ± 0.057	0.006 ± 0.05	0.0195 ± 0.032	-0.0405 ± 0.042	0.071 ± 0.072	0.0065 ± 0.052	-0.0005 ± 0.1	-0.0005 ± 0.098	0.008 ± 0.092	0.118 ± 0.013
BT:sIL-6	0.0555 ± 0.035	0.007 ± 0.018	-0.033 ± 0.038	0.054 ± 0.051	0.0155 ± 0.0064	-0.0365 ± 0.005	-0.088 ± 0.0042	-0.103 ± 0.031	-0.242 ± 0.045	-0.0315 ± 0.0064	0.06 ± 0.064	-0.0215 ± 0.079	0.0275 ± 0.043	-0.0215 ± 0.005	0.0615 ± 0.0035	0.028 ± 0.057	0.039 ± 0.045	-0.029 ± 0.071	0.077 ± 0.058
